Tests used:
Cytochrome P450 2A6 = target: T1, Cytochrome P450 2A6 (Homo sapiens, UniProt P11509); details: bti-tn-5b1-4
T1 sequence (P11509 whole entry): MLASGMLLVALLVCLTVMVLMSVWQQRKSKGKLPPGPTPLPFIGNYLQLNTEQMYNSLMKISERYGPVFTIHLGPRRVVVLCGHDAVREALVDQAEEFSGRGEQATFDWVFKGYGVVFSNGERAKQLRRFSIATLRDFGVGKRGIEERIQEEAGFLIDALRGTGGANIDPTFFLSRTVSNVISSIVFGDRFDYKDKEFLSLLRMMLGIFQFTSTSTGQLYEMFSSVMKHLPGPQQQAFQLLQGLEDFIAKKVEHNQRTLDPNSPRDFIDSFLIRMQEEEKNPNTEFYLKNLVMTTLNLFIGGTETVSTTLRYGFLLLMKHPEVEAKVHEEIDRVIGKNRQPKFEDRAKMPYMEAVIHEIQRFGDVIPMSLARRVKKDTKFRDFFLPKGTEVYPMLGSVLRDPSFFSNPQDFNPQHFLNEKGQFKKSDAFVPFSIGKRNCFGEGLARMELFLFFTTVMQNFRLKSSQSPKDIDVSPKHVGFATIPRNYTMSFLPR

Melanocortin receptor 4 = Melanocortin receptor 4 (Homo sapiens, UniProt P32245); assay type: cell membranes, Membrane; details: hek293
Chain of Melanocortin receptor 4 (P32245 whole entry): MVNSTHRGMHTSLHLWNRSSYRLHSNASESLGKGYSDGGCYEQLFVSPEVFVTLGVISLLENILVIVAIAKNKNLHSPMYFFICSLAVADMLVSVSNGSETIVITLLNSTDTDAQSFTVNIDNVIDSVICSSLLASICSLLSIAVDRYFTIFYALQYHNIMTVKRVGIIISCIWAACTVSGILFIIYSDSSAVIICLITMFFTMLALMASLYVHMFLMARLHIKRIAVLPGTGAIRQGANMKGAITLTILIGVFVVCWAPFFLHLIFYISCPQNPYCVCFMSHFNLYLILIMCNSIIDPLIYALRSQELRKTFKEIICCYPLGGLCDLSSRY

Nitric oxide synthase 1 = Nitric oxide synthase 1 (Rattus norvegicus, UniProt P29476); assay type: tissue-based, Cerebellum
Chain of Nitric oxide synthase 1 (P29476 whole entry): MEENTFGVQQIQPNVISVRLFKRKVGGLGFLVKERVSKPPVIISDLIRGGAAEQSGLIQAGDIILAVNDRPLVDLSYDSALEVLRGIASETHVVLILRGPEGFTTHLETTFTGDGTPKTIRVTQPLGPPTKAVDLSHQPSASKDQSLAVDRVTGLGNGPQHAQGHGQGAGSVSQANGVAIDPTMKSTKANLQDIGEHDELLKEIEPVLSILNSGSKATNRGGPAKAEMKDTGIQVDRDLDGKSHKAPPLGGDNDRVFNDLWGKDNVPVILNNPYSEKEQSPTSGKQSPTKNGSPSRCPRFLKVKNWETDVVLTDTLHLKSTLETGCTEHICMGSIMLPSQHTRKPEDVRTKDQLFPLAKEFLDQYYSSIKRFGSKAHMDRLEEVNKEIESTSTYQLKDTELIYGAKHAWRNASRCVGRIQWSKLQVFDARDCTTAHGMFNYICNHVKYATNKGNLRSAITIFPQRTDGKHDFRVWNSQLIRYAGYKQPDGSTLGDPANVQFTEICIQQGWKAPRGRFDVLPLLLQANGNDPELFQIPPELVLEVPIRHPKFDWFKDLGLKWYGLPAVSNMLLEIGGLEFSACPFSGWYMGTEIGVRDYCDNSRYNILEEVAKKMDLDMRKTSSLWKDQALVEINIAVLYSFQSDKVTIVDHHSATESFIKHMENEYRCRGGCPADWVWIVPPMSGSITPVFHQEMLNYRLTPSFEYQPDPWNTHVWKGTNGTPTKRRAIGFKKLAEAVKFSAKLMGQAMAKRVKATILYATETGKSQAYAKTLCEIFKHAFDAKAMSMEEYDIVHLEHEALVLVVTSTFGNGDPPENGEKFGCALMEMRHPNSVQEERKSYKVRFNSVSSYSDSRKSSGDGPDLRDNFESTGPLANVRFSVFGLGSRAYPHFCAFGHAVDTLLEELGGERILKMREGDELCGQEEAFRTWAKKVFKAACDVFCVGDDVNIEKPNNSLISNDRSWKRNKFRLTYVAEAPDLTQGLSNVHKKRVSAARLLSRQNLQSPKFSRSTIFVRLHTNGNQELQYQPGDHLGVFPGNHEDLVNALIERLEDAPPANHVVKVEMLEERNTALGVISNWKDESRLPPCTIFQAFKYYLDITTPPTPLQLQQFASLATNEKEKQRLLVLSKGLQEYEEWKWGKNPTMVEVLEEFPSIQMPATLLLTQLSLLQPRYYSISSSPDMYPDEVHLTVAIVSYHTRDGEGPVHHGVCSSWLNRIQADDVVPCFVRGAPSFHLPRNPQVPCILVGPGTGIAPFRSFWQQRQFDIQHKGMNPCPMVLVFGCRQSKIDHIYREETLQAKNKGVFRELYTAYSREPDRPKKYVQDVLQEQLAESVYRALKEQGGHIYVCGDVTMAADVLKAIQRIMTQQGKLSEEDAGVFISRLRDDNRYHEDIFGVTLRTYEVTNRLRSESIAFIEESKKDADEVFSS

[1] = target: T2, Neuropeptide Y receptor type 1 (Homo sapiens, UniProt P25929); assay type: cell membranes, Membrane; details: sk-n-mc
T2 sequence (P25929 whole entry): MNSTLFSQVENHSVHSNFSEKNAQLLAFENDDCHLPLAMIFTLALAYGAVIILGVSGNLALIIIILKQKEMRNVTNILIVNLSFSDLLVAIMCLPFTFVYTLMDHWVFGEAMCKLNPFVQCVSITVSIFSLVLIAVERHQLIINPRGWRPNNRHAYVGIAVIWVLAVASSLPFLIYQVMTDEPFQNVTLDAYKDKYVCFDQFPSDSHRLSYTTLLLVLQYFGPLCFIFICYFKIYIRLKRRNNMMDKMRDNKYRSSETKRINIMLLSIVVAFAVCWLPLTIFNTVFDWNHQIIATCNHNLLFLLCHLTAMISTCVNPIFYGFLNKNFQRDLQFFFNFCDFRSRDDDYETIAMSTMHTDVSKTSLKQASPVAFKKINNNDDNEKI

Adenosine receptor A1 = target: T3, Adenosine receptor A1 (Homo sapiens, UniProt P30542); assay type: cell membranes, CHO, Membrane; details: cho;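 note: radioligand binding assay at the adenosine A1 receptor, with DPCPX serving as the labelled ligand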
T3 sequence (P30542 whole entry): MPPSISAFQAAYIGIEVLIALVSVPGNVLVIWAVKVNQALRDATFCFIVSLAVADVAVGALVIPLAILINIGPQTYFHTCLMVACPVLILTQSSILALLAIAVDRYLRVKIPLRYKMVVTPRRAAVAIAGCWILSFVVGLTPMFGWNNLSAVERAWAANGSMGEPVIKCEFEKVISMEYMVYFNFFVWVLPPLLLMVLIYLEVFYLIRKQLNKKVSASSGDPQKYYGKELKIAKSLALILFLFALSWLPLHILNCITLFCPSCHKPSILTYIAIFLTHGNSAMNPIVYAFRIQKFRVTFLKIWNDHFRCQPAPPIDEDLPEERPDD

Cytochrome P450 1A2 = target: T4, Cytochrome P450 1A2 (Homo sapiens, UniProt P05177); details: bti-tn-5b1-4
T4 sequence (P05177 whole entry): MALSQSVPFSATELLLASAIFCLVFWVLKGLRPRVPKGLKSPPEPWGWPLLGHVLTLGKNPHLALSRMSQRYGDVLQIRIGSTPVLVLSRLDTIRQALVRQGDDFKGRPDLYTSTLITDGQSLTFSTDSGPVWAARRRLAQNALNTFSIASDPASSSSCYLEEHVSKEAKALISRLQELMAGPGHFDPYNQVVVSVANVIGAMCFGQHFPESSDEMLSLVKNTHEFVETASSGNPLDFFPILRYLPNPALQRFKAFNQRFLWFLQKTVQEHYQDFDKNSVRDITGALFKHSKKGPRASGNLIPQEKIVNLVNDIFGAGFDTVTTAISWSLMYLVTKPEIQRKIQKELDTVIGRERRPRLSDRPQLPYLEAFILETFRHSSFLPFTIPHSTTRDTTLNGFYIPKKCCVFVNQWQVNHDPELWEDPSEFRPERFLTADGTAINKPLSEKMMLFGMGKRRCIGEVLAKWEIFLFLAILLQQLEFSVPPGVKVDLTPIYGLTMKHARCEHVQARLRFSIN

[2] = target: Protein kinase C alpha type (Homo sapiens, UniProt P17252); assay type: cell-based; details: sf9;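 note: inhibition of PKCalpha kinase activity measured in an enzyme assay with histone as the phosphorylation substrate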
Cathepsin G = target: T5, Cathepsin G (Homo sapiens, UniProt P08311); assay type: tissue-based; details: neutrophil;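 note: inhibition of Cathepsin G enzyme activity, tested on an AMC-conjugated peptide substrate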
T5 sequence (P08311 whole entry): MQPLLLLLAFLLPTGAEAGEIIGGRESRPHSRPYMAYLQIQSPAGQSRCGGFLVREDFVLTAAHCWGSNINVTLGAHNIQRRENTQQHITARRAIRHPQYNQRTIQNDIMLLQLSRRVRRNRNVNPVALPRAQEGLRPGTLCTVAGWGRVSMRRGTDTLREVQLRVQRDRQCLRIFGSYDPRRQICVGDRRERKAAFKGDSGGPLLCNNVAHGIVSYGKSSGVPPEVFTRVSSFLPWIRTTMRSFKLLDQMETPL

[3] = target: T6, C-X-C chemokine receptor type 1 (Homo sapiens, UniProt P25024)
T6 sequence (P25024 whole entry): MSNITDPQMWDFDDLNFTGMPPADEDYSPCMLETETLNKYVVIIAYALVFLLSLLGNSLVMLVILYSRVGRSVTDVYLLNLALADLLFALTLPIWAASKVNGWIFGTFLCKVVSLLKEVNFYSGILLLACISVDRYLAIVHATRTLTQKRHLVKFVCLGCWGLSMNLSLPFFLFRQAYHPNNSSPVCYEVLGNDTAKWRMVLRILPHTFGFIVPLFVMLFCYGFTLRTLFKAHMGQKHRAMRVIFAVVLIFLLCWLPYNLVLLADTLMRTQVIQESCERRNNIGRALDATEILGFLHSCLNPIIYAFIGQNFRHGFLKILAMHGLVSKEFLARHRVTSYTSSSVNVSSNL
Note: in other assays of this panel Not Active means under 50% inhibition at 10 µM.

CCCCC(=O)N(Cc1ccc(-c2ccccc2-c2nnn[nH]2)cc1)[C@H](C(=O)O)C(C)C
Not Active: IC50 (Cytochrome P450 2A6) | Ki (Cytochrome P450 2A6) | IC50 (Melanocortin receptor 4) | IC50 (Nitric oxide synthase 1) | IC50 [1] | IC50 (Adenosine receptor A1) | IC50 (Cytochrome P450 1A2) | Ki (Cytochrome P450 1A2) | IC50 [2] | IC50 (Cathepsin G) | IC50 [3]

O=C(O)COc1ccc(C(=O)c2cccs2)c(Cl)c1Cl
Not Active: IC50 (Cytochrome P450 2A6) | Ki (Cytochrome P450 2A6) | IC50 (Melanocortin receptor 4) | IC50 (Nitric oxide synthase 1) | IC50 [1] | IC50 (Adenosine receptor A1) | IC50 (Cytochrome P450 1A2) | Ki (Cytochrome P450 1A2) | IC50 [2] | IC50 (Cathepsin G) | IC50 [3]

CN1[C@@H]2CC[C@H]1C[C@@H](OC(c1ccccc1)c1ccccc1)C2 [BENZTROPINE]
Not Active: IC50 (Cytochrome P450 2A6) | Ki (Cytochrome P450 2A6) | IC50 (Melanocortin receptor 4) | IC50 (Nitric oxide synthase 1) | IC50 [1] | IC50 (Adenosine receptor A1) | IC50 (Cytochrome P450 1A2) | Ki (Cytochrome P450 1A2) | IC50 [2] | IC50 (Cathepsin G) | IC50 [3]

C[C@@](Cc1ccc(O)c(O)c1)(NN)C(=O)O.O [CARBIDOPA]
Not Active: IC50 (Cytochrome P450 2A6) | Ki (Cytochrome P450 2A6) | IC50 (Melanocortin receptor 4) | IC50 (Nitric oxide synthase 1) | IC50 [1] | IC50 (Adenosine receptor A1) | IC50 (Cytochrome P450 1A2) | Ki (Cytochrome P450 1A2) | IC50 [2] | IC50 (Cathepsin G) | IC50 [3]

CN1CCN(C2=Nc3cc(Cl)ccc3Nc3ccccc32)CC1 [CLOZAPINE]
Not Active: IC50 (Cytochrome P450 2A6) | Ki (Cytochrome P450 2A6) | IC50 (Melanocortin receptor 4) | IC50 (Nitric oxide synthase 1) | IC50 [1] | IC50 (Adenosine receptor A1) | IC50 (Cytochrome P450 1A2) | Ki (Cytochrome P450 1A2) | IC50 [2] | IC50 (Cathepsin G) | IC50 [3]

CC(C)NC[C@@H](O)COc1cccc2ccccc12 [DEXPROPRANOLOL]
Not Active: IC50 (Cytochrome P450 2A6) | Ki (Cytochrome P450 2A6) | IC50 (Melanocortin receptor 4) | IC50 (Nitric oxide synthase 1) | IC50 [1] | IC50 (Adenosine receptor A1) | IC50 (Cytochrome P450 1A2) | Ki (Cytochrome P450 1A2) | IC50 [2] | IC50 (Cathepsin G) | IC50 [3]

CC(C)NC[C@H](O)COc1cccc2ccccc12 [LEVOPROPRANOLOL]
Not Active: IC50 (Cytochrome P450 2A6) | Ki (Cytochrome P450 2A6) | IC50 (Melanocortin receptor 4) | IC50 (Nitric oxide synthase 1) | IC50 [1] | IC50 (Adenosine receptor A1) | IC50 (Cytochrome P450 1A2) | Ki (Cytochrome P450 1A2) | IC50 [2] | IC50 (Cathepsin G) | IC50 [3]

O=C(O)CCCCC1CCSS1 (stereo not drawn) [LIPOIC ACID, ALPHA]
Not Active: IC50 (Cytochrome P450 2A6) | Ki (Cytochrome P450 2A6) | IC50 (Melanocortin receptor 4) | IC50 (Nitric oxide synthase 1) | IC50 [1] | IC50 (Adenosine receptor A1) | IC50 (Cytochrome P450 1A2) | Ki (Cytochrome P450 1A2) | IC50 [2] | IC50 (Cathepsin G) | IC50 [3]

— ChEMBL document CHEMBL1909046, “DrugMatrix in vitro pharmacology data”
